Laboratory results reported in PubChem BioAssay AID248 (DTP/NCI, 2004).
Several values for one entry are separate records, joined by “and”; a condition that tells them apart may be missing. Equal entries are not always repeated. Inconclusive results and toxic doses are left out. Cut-off read from the data, not from the text of the source: active = T/C of 150% or more; inactive = T/C below 125%.

Test system: L1210 leukemia ip in BDF1 mice, survival T/C
Assay: NCI In Vivo Anticancer Drug Screen. Data for tumor model L1210 Leukemia (intraperitoneal) in B6D2F1 (BDF1) mice
Conditions: endpoint: mean survival time, higher = longer survival
In short: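 Tumor cells were implanted, animals were treated, and survival was followed. The result divides the treated measurement by the vehicle-control measurement.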

[1] = dose: 50.0 mg/kg/injection, schedule: Q01DX009 (ip), vehicle: saline with Tween-80
[2] = dose: 100.0 mg/kg/injection, schedule: Q01DX009 (ip), vehicle: saline with Tween-80
[3] = dose: 100.0 mg/kg/injection, schedule: Q04DX002 (ip), vehicle: saline
[4] = dose: 200.0 mg/kg/injection, schedule: Q04DX002 (ip), vehicle: saline
[5] = dose: 400.0 mg/kg/injection, schedule: Q04DX002 (ip), vehicle: saline
[6] = dose: 100.0 mg/kg/injection, schedule: Q01DX009 (ip), vehicle: Klucel (hydroxypropylcellulose) (HPC)
[7] = dose: 200.0 mg/kg/injection, schedule: Q01DX009 (ip), vehicle: Klucel (hydroxypropylcellulose) (HPC)
[8] = dose: 400.0 mg/kg/injection, schedule: Q01DX009 (ip), vehicle: Klucel (hydroxypropylcellulose) (HPC)
[9] = dose: 100.0 mg/kg/injection, schedule: Q04DX003 (ip), vehicle: saline with Tween-80
[10] = dose: 100.0 mg/kg/injection, schedule: Q01DX001 (ip), vehicle: carboxymethylcellulose (CMC)
[11] = dose: 200.0 mg/kg/injection, schedule: Q01DX001 (ip), vehicle: carboxymethylcellulose (CMC)
[12] = dose: 400.0 mg/kg/injection, schedule: Q01DX001 (ip), vehicle: carboxymethylcellulose (CMC)
[13] = dose: 50.0 mg/kg/injection, schedule: Q01DX001 (ip), vehicle: carboxymethylcellulose (CMC)
[14] = dose: 100.0 mg/kg/injection, schedule: Q01DX001 (ip), vehicle: saline

Measured: T/C

CN(C)CCCNC(=S)Nc1ccc(Cl)cc1
inactive: [1] 108 % of control | [2] 108 % of control

O=C(COc1cc(Cl)c(Cl)cc1Cl)Nc1cccc(C(F)(F)F)c1
inactive: [3] 100 % of control | [4] 92 % of control | [5] 111 % of control

O=C(O)Cc1ccc2[nH]c3c(c2c1)CCCC3
inactive: dose: 50.0 mg/kg/injection, schedule: Q01DX009 (ip), vehicle: Klucel (hydroxypropylcellulose) (HPC) 105 % of control | dose: 100.0 mg/kg/injection, schedule: Q01DX001 (ip), vehicle: steriod suspending solution 95 % of control | [6] 103 % of control | dose: 200.0 mg/kg/injection, schedule: Q01DX001 (ip), vehicle: steriod suspending solution 92 % of control | [7] 97 % of control

CCOP(=O)(OCC)OC(=C(Cl)Cl)C(Cl)(Cl)Cl
inactive: dose: 100.0 mg/kg/injection, schedule: Q04DX002 (ip), vehicle: saline with Tween-80 115 % of control | dose: 200.0 mg/kg/injection, schedule: Q04DX002 (ip), vehicle: saline with Tween-80 102 % of control

COc1ccc(C)cc1NC(=O)c1ccc(Cl)cc1Cl
inactive: [6] 98 % of control | [7] 101 % of control | [8] 97 % of control

Cc1cc(C(=O)CCC(=O)O)c(C)s1
inactive: dose: 100.0 mg/kg/injection, schedule: Q01DX009 (ip), vehicle: gum acacia 97 % of control | dose: 100.0 mg/kg/injection, schedule: Q04DX003 (ip), vehicle: gum acacia 102 % of control | dose: 200.0 mg/kg/injection, schedule: Q01DX009 (ip), vehicle: gum acacia 90 % of control | dose: 200.0 mg/kg/injection, schedule: Q04DX003 (ip), vehicle: gum acacia 96 % of control | dose: 400.0 mg/kg/injection, schedule: Q01DX009 (ip), vehicle: gum acacia 101 % of control | dose: 400.0 mg/kg/injection, schedule: Q04DX003 (ip), vehicle: gum acacia 101 % of control

CCC(=O)Nc1cc(C)c(C)cc1C
inactive: [6] 100 % of control | [7] 105 % of control

C#CCCCN1CCC2(CC1)C(=O)N(C(=O)N(C)C)CN2c1ccccc1
inactive: dose: 25.0 mg/kg/injection, schedule: Q04DX003 (ip), vehicle: saline with Tween-80 105 % of control | dose: 50.0 mg/kg/injection, schedule: Q04DX003 (ip), vehicle: saline with Tween-80 103 % of control | [9] 88 % of control and 92 % of control

CCCCCCCCCCCCCC(=O)N(CC)CC
inactive: [10] 104 % of control | dose: 100.0 mg/kg/injection, schedule: Q01DX009 (ip), vehicle: carboxymethylcellulose (CMC) 95 % of control and 100 % of control | dose: 100.0 mg/kg/injection, schedule: Q04DX003 (ip), vehicle: carboxymethylcellulose (CMC) 98 % of control | [11] 94 % of control | dose: 200.0 mg/kg/injection, schedule: Q01DX009 (ip), vehicle: carboxymethylcellulose (CMC) 101 % of control and 107 % of control | dose: 200.0 mg/kg/injection, schedule: Q04DX003 (ip), vehicle: carboxymethylcellulose (CMC) 92 % of control | [12] 96 % of control | dose: 400.0 mg/kg/injection, schedule: Q04DX003 (ip), vehicle: carboxymethylcellulose (CMC) 103 % of control

Cc1ccc(S(=O)(=O)OCC2C(c3ccccc3)CCC(c3ccccc3)C2COS(=O)(=O)c2ccc(C)cc2)cc1 (configuration not stated)
inactive: [6] 90 % of control | dose: 100.0 mg/kg/injection, schedule: Q04DX003 (ip), vehicle: Klucel (hydroxypropylcellulose) (HPC) 103 % of control | [7] 94 % of control | dose: 200.0 mg/kg/injection, schedule: Q04DX003 (ip), vehicle: Klucel (hydroxypropylcellulose) (HPC) 105 % of control | dose: 400.0 mg/kg/injection, schedule: Q04DX003 (ip), vehicle: Klucel (hydroxypropylcellulose) (HPC) 100 % of control

COc1ccc(/C=C(/C)[N+](=O)[O-])cc1
inactive: dose: 50.0 mg/kg/injection, schedule: Q01DX001 (ip), vehicle: Klucel (hydroxypropylcellulose) (HPC) 104 % of control | dose: 100.0 mg/kg/injection, schedule: Q01DX001 (ip), vehicle: Klucel (hydroxypropylcellulose) (HPC) 97 % of control | dose: 200.0 mg/kg/injection, schedule: Q01DX001 (ip), vehicle: Klucel (hydroxypropylcellulose) (HPC) 95 % of control and 90 % of control | dose: 300.0 mg/kg/injection, schedule: Q01DX001 (ip), vehicle: Klucel (hydroxypropylcellulose) (HPC) 100 % of control

CCOC(=O)c1cc(OC(C)=O)c2c(ccc3ccccc32)c1C
inactive: [6] 98 % of control | [7] 88 % of control | [8] 91 % of control

NC(CSC(c1ccccc1)(c1ccccc1)c1ccc(CO)cc1)C(=O)O (configuration not stated)
active: dose: 400.0 mg/kg/injection, schedule: Q01DX009 (ip), vehicle: saline 150 % of control and 157 % of control | dose: 600.0 mg/kg/injection, schedule: Q01DX009 (ip), vehicle: saline 168 % of control

CC[Si](CC)(CC)O[Si](CC)(CC)CC
inactive: [3] 102 % of control | [4] 94 % of control | [5] 97 % of control

O=C(c1ccccc1)c1cccc([N+](=O)[O-])c1
inactive: [9] 98 % of control | dose: 200.0 mg/kg/injection, schedule: Q04DX003 (ip), vehicle: saline with Tween-80 93 % of control | dose: 400.0 mg/kg/injection, schedule: Q04DX003 (ip), vehicle: saline with Tween-80 89 % of control

CN(C)c1ccc(/C=N/Nc2nnc(N/N=C/c3ccc(N(C)C)cc3)c3ccccc23)cc1
inactive: [13] 98 % of control and 91 % of control | [10] 86 % of control | [11] 93 % of control and 91 % of control | [12] 100 % of control and 104 % of control

Cc1ccc(Nc2nc(N)nc(N)c2N)cc1Cl
inactive: dose: 100.0 mg/kg/injection, schedule: Q01DX Z (ip), vehicle: saline 104 % of control

CCC1(O)CCCC1
inactive: [13] 95 % of control | [10] 92 % of control | [11] 92 % of control | [12] 97 % of control

Oc1ccc(Cl)cc1Cc1cc(Cl)cc(Cc2cc(Cl)ccc2O)c1O
inactive: dose: 12.5 mg/kg/injection, schedule: Q01DX009 (ip), vehicle: saline with Tween-80 98 % of control | dose: 25.0 mg/kg/injection, schedule: Q01DX009 (ip), vehicle: saline with Tween-80 102 % of control | [1] 109 % of control

CCN(CC)CCN(Cc1ccccc1)C(=O)C(O)(c1ccccc1)c1ccccc1
inactive: dose: 100.0 mg/kg/injection, schedule: Q01DX001 (ip), vehicle: saline with Tween-80 105 % of control | dose: 200.0 mg/kg/injection, schedule: Q01DX001 (ip), vehicle: saline with Tween-80 108 % of control

CC(=O)NC1CCC(=O)C=C1c1ccccc1 (configuration not stated)
inactive: [14] 96 % of control | dose: 200.0 mg/kg/injection, schedule: Q01DX001 (ip), vehicle: saline 107 % of control | dose: 400.0 mg/kg/injection, schedule: Q01DX001 (ip), vehicle: saline 94 % of control

CCN(CC)CCOC(=O)Nc1cccc(Cl)c1
inactive: dose: 25.0 mg/kg/injection, schedule: Q01DX009 (ip), vehicle: saline 100 % of control | dose: 50.0 mg/kg/injection, schedule: Q01DX009 (ip), vehicle: saline 98 % of control | dose: 100.0 mg/kg/injection, schedule: Q01DX009 (ip), vehicle: saline 100 % of control and 109 % of control

CN1CCc2ccccc2C1Cc1cc(OCc2ccccc2)ccc1N (configuration not stated)
inactive: dose: 10.0 mg/kg/injection, schedule: Q01DX001 (ip), vehicle: carboxymethylcellulose (CMC) 89 % of control | dose: 20.0 mg/kg/injection, schedule: Q01DX001 (ip), vehicle: carboxymethylcellulose (CMC) 95 % of control | dose: 40.0 mg/kg/injection, schedule: Q01DX001 (ip), vehicle: carboxymethylcellulose (CMC) 93 % of control | dose: 80.0 mg/kg/injection, schedule: Q01DX001 (ip), vehicle: carboxymethylcellulose (CMC) 98 % of control

O=C(O)c1c2ccccc2nc2ccccc12
inactive: dose: 50.0 mg/kg/injection, schedule: Q01DX001 (ip), vehicle: saline 102 % of control | [14] 111 % of control

Cc1ncc(C(C)(O)c2ccccc2)n1C (configuration not stated)
inactive: [2] 105 % of control | dose: 200.0 mg/kg/injection, schedule: Q01DX009 (ip), vehicle: saline with Tween-80 94 % of control

O=C(NCCCCC(NC(=O)c1ccccc1)C(=O)NCCCCCCCCCCNC(=O)C(CCCCNC(=O)c1ccccc1)NC(=O)c1ccccc1)c1ccccc1 (configuration not stated)
inactive: dose: 10.0 mg/kg/injection, schedule: Q01DX Z (ip), vehicle: saline 100 % of control | dose: 30.0 mg/kg/injection, schedule: Q01DX Z (ip), vehicle: saline 90 % of control

O=C1/C(=C\c2ccccn2)c2ccccc2N1Cl
inactive: dose: 100.0 mg/kg/injection, schedule: Q01DX001 (ip), vehicle: other 94 % of control | dose: 200.0 mg/kg/injection, schedule: Q01DX001 (ip), vehicle: other 92 % of control | dose: 400.0 mg/kg/injection, schedule: Q01DX001 (ip), vehicle: other 94 % of control
